The results in this text go back to ChEMBL document CHEMBL2401712, “Fused thiazolyl alkynes as potent mGlu5 receptor positive allosteric modulators” (Bioorg Med Chem Lett, 2013).

In series [1] the target is T1, Metabotropic glutamate receptor 5 (Homo sapiens, UniProt P41594). Put plainly: Negative allosteric modulation of human mGlu5 receptor expressed in HEK293 cells assessed as inhibition of L-glutamate-induced activity after 1 hr by FLIPR assay. The series is classed as cell-based.
Target sequence in this assay (P41594 whole entry): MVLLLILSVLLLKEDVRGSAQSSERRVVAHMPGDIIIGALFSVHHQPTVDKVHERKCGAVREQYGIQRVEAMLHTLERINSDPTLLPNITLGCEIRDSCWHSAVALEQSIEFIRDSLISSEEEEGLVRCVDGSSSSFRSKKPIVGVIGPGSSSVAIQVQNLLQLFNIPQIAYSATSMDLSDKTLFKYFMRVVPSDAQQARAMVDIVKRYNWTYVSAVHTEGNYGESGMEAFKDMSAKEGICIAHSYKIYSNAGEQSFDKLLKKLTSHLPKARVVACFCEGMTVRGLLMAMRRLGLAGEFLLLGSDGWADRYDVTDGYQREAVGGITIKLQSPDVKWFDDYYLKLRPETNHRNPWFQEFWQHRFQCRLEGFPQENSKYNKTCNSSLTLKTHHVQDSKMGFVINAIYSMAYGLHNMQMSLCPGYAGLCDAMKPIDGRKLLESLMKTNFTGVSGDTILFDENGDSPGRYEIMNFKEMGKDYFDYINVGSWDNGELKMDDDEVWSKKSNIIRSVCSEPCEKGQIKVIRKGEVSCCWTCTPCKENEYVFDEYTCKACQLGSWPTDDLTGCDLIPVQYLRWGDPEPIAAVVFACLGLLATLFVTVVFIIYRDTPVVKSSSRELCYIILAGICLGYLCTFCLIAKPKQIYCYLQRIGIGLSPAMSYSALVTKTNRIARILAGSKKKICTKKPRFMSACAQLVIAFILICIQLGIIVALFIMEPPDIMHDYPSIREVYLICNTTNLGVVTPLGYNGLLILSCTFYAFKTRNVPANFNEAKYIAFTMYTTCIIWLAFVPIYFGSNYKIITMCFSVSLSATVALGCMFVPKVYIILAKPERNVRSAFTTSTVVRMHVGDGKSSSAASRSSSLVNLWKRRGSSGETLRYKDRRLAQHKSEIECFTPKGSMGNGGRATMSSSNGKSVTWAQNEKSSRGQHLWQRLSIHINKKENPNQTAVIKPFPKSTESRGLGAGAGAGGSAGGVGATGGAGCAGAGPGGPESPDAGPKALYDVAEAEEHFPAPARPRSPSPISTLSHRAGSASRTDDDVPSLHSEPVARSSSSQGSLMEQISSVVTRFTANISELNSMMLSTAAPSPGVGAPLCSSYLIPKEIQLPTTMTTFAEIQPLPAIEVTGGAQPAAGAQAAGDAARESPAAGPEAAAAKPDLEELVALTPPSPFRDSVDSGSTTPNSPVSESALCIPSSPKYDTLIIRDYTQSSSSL
Series [2] is described as follows: Plasma protein binding in rat. The series is classed as ADME, cell-free. Particulars: read-out: PPB (converted).
Series [3] concerns the target CYP3A4 (Homo sapiens, UniProt P08684). The series can be described thus: Inhibition of CYP3A4 (unknown origin) at 5 uM relative to control. The format is ADME.
Series [4] concerns the target T1, Metabotropic glutamate receptor 5. Put plainly: Positive allosteric modulation of human mGlu5 receptor expressed in HEK293 cells assessed as potentiation of L-glutamate-induced activity after 1 hr by FLIPR assay relative to control. The format is cell-based.
Target sequence in this assay (P41594 21-1212 limits assumed): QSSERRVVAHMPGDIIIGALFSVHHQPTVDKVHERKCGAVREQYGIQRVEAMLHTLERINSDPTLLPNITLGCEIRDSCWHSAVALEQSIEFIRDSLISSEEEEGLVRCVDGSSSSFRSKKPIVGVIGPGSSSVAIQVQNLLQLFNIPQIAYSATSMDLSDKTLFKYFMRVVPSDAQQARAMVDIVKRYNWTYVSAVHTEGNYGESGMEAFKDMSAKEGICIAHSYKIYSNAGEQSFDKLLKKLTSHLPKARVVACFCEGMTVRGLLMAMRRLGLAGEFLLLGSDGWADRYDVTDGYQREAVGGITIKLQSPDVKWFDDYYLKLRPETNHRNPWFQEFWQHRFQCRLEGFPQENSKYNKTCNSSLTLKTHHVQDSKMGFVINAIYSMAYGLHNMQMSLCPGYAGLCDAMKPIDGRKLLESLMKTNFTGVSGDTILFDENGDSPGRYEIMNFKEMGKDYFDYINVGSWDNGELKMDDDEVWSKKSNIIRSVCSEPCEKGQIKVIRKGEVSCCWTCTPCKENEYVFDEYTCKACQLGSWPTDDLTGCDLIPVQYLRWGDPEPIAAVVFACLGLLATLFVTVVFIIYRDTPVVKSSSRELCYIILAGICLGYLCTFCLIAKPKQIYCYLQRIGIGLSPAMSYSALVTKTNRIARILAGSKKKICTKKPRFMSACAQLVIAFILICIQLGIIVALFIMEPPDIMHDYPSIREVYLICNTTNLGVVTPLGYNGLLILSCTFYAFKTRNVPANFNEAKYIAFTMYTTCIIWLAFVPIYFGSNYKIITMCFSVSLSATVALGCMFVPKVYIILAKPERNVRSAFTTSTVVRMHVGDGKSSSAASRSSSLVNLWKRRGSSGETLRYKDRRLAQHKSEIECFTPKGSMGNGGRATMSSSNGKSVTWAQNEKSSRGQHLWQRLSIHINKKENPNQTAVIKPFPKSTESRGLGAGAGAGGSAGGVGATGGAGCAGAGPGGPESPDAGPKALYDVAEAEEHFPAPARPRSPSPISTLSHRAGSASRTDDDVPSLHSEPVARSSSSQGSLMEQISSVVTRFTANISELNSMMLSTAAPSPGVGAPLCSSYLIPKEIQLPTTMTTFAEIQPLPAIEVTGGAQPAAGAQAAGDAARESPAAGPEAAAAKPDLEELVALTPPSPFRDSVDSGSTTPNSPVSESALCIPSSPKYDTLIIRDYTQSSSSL
Series [5] has the same target. The series can be described thus: Positive allosteric modulation of human mGlu5 receptor expressed in HEK293 cells assessed as potentiation of L-glutamate-induced activity after 1 hr by FLIPR assay. The format is cell-based.
Target sequence in this assay (P41594 whole entry): as the sequence (P41594 whole entry) above
The target in series [6] is CYP2D6 (Homo sapiens, UniProt P10635). The series can be described thus: Inhibition of CYP2D6 (unknown origin) at 5 uM relative to control. The series is classed as ADME.
Chain of CYP2D6 (P10635 whole entry): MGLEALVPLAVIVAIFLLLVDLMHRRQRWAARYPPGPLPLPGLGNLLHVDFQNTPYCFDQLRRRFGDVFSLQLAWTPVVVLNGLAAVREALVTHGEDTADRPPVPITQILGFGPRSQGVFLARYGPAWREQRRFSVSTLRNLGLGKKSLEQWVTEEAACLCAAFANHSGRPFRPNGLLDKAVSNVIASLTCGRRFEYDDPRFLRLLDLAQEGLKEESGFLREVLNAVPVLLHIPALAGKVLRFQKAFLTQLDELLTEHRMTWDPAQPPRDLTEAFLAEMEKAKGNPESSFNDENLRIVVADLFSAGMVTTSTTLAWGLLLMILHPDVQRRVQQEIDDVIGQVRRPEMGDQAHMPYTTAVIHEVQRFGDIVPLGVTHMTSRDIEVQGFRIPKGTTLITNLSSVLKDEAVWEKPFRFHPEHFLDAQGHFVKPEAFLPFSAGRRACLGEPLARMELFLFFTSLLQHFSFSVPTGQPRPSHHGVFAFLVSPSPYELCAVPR
Series [7] can be described thus: Plasma protein binding in human. Particulars: read-out: PPB (converted). The format is ADME, cell-free.
Series [8] relates to Liver microsomes. The series can be described thus: Intrinsic clearance in rat liver microsomes. The format is ADME, Microsome. (Liver microsomes are vesicles of endoplasmic reticulum, rich in cytochrome P450 enzymes.)
Series [9] has as its system Liver microsomes. The series can be described thus: Metabolic stability in human liver microsomes assessed as GSH adduct formation after 60 mins by LC-MS/MS analysis. The series is classed as ADME, Microsome. The following applies: 1 h.
For series [10], the system named is Liver microsomes. Put plainly: Intrinsic clearance in human liver microsomes. The series is classed as ADME, Microsome. Further details: unit not given here.
Series [11] has as its target T1, Metabotropic glutamate receptor 5. The series can be described thus: Negative allosteric modulation of human mGlu5 receptor expressed in HEK293 cells assessed as inhibition of L-glutamate-induced activity after 1 hr by FLIPR assay relative to control. Also on record: concentration or dose not given beside the values. The format is cell-based. Particulars: concentration not given here.
Target sequence in this assay (P41594 21-1212 limits assumed): as the sequence (P41594 21-1212 limits assumed) above

The target is the same in series [12]. The series can be described thus: Positive allosteric modulation of mGlu5 receptor (unknown origin).
Target sequence in this assay (P41594 whole entry): as the sequence (P41594 whole entry) above
Series [13] shares this target. Put plainly: Positive allosteric modulation of mGlu5 receptor (unknown origin) relative to control.
Target sequence in this assay (P41594 21-1212 limits assumed): as the sequence (P41594 21-1212 limits assumed) above

Chain of CYP3A4 (P08684 whole entry): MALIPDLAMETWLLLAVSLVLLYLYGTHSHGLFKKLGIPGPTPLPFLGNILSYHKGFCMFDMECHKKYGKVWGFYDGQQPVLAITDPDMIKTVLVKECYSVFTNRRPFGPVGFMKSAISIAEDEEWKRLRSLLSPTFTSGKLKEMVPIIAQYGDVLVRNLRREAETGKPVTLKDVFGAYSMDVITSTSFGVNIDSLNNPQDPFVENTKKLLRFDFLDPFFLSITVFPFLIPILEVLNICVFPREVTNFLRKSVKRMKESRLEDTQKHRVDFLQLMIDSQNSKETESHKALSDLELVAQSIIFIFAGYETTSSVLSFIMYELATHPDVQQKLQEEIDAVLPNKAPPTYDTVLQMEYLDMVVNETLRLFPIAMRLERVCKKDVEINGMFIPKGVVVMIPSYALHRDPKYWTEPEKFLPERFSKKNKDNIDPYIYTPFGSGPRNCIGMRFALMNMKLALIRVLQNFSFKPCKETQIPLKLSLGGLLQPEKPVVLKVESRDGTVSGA

As usually defined, the IC50 is the point on the concentration scale where inhibition reaches its midpoint. What is called inhibition is the drop in the measured response relative to a control, in per cent. The term Emax denotes the size of the effect at its maximum, as opposed to the concentration needed. As a reminder, the EC50 is the midpoint of the concentration-response curve. For `CN1CCc2nc(C#Cc3ccccc3)sc2C1=O`, the IC50 in series [1] is > 10 µM. For the same compound, the fraction unbound in [2] was 0.049; in series [7] it was 0.033. For the same compound, the inhibition at 5 µM in series [3] and in series [6] was < 40% each time. The Emax in [4] turned out to be 180%. Also, in series [5], the EC50 worked out at 0.0024 µM. Moreover, the CLH in [8] was 52 mL/min; in series [10], 3.1. Moreover, the Stability entry in series [9] is “Unstable”.

`O=C(C1CC(F)(F)C1)N1CCc2nc(C#Cc3ccccc3)sc2C1`: the inhibition in series [11] amounted to 52%. The IC50 in series [1] is > 10 µM. In addition, the fraction unbound in series [2] is 0.012; in [7] it was 0.011. Further, the inhibition at 5 µM in series [3] and in series [6] was < 40% in each case. In addition, the Emax in series [4] stood at 89%. Besides, the EC50 in series [5] was 0.018 µM. Besides, the CLH in series [8] was found to be 7.6 mL/min; in series [10] it was 1.1. The Stability entry in series [9] is “Stable”.

For the compound `O=C(C1CC1)N1CCc2nc(C#Cc3ccccc3)sc2C1`, the inhibition in [11] turned out to be 61%. The IC50 in [1] worked out at 0.29 µM. Besides, the Emax in series [4] was -13%. Moreover, the EC50 in series [5] was > 10 µM.

As to `O=C1c2sc(C#Cc3ccccc3)nc2CN1C1CC1`, the inhibition in series [11] worked out at 59%. For the same compound, in [1], the IC50 came to 0.023 µM. The Emax in [4] worked out at 11%. In series [5], the EC50 was > 10 µM.

In the case of `O=C(c1cccc(C(F)(F)F)c1)N1CCc2nc(C#Cc3ccccc3)sc2C1`, in series [11], the inhibition is 12%. The IC50 in series [1] was > 10 µM. Also, the Emax in series [4] amounted to 170%. In [5], the EC50 is 0.011 µM.

In the case of `CN(C)S(=O)(=O)N1CCc2nc(C#Cc3ccccc3)sc2C1`, the inhibition in [11] stood at 71%. For the same compound, the 50% inhibitory concentration (IC50) in series [1] was determined as 0.0057 µM. Moreover, the Emax in [4] is -6%. Also, the EC50 in [5] is > 10 µM.

For the compound `O=S(=O)(N1CCOCC1)N1CCc2nc(C#Cc3ccccc3)sc2C1`, the inhibition in series [11] was 89%. Moreover, in series [1], the IC50 came to 0.013 µM. Also, the Emax in series [4] was determined as 1.5%. Further, the EC50 in series [5] is > 10 µM.

As for `O=S(=O)(C1CCCCC1)N1CCc2nc(C#Cc3ccccc3)sc2C1`, the inhibition in series [11] is 81%. In addition, the IC50 in series [1] was 0.48 µM. Besides, the Emax in series [4] is -17%. In addition, the EC50 in series [5] was > 10 µM.

For `O=C([C@H]1CC2CCC1C2)N1CCc2nc(C#Cc3ccccc3)sc2C1` (some centres undefined), the inhibition in series [11] is 8%. Further, the IC50 in series [1] is > 10 µM. The Emax in series [4] came out at 280%. The EC50 in series [5] came out at 0.018 µM.

`O=C(c1cnc(C#Cc2ccccc2)s1)N1CCCCC1`: it took 0.0061 µM to reach a half-maximal effect in [12] (EC50). Moreover, the Emax in series [13] came out at 167%. The Stability entry in series [9] was “Unstable”.

As for `CC(C)CN1CCc2nc(C#Cc3ccccc3)sc2C1`, the inhibition in series [11] amounted to 94%. The IC50 in series [1] was 0.65 µM. For the same compound, in [4], the Emax was -48%. Moreover, the EC50 in [5] is > 10 µM.

Turning to `CCC(=O)N1CCc2nc(C#Cc3ccccc3)sc2C1`, in series [11], the inhibition was determined as 79%. In addition, in series [1], the IC50 came out at 0.038 µM. For the same compound, the Emax in series [4] is -17%. Further, the EC50 in series [5] is > 10 µM.

Turning to `Cc1cccc(C(=O)N2CCc3nc(C#Cc4ccccc4)sc3C2)n1`, the inhibition in [11] worked out at 19%. The IC50 in [1] was > 10 µM. For the same compound, the Emax in series [4] was 120%. Also, the EC50 in [5] is 0.16 µM.

Take `O=C(C1CC(F)C1)N1CCc2nc(C#Cc3ccccc3)sc2C1` (centres undefined): the inhibition in [11] amounted to 38%. Moreover, the IC50 in series [1] was > 10 µM. Further, the Emax in series [4] was determined as 61%. For the same compound, the EC50 in series [5] stood at 0.085 µM.

For `O=S(=O)(N1CCCCC1)N1CCc2nc(C#Cc3ccccc3)sc2C1`, the inhibition in [11] was 86%. Also, the IC50 in series [1] was determined as 0.78 µM. In [4], the Emax was 6%. In addition, the EC50 in series [5] is > 10 µM.

Regarding `CN1CCc2nc(C#Cc3ccccc3)sc2C1`, the IC50 in series [1] was > 10 µM. Also, the fraction unbound in series [2] is 0.061; in [7], 0.035. Also, the inhibition at 5 µM in [3] and in [6] was < 40% each time. In addition, the Emax in [4] amounted to 110%. Further, the EC50 in series [5] came to 0.034 µM. Moreover, the CLH in series [8] was 88 mL/min; in series [10], 4.9. In addition, the Stability result in [9] was “Stable”.

With `O=C(N1CCCC1)N1CCc2nc(C#Cc3ccccc3)sc2C1`, the concentration for half-maximal inhibition (IC50) in series [1] was > 10 µM. Further, the figures for the fraction unbound in series [2] and in series [7] were 0.047 and 0.024, respectively. For the same compound, the inhibition at 5 µM in series [3] and in series [6] was < 40% each time. The Emax in series [4] worked out at 180%. Also, in series [5], the EC50 turned out to be 0.0098 µM. Also, the results for the CLH in series [8] and in series [10] were 49 mL/min and 1, respectively.

Regarding `CC1CCC(C(=O)N2CCc3nc(C#Cc4ccccc4)sc3C2)CC1` (centres undefined), the inhibition in [11] stood at 0%. Moreover, in [1], the IC50 was > 10 µM. Moreover, in series [4], the Emax was found to be 80%. Also, the EC50 in series [5] turned out to be 0.19 µM.

`Fc1cccc(C#Cc2nc3c(s2)CN(C2CCCC2)CC3)c1`: the inhibition in series [11] was 94%. Moreover, the IC50 in [1] was 0.64 µM. In addition, in series [4], the Emax was -44%. For the same compound, the EC50 in series [5] was > 10 µM.

With `CCCCN1CCc2nc(C#Cc3ccccc3)sc2C1`, in series [11], the inhibition came out at 28%. The IC50 in series [1] is > 10 µM. The Emax in series [4] worked out at 32%. Also, the EC50 in series [5] worked out at 0.11 µM.

As for `O=C(N1CCc2nc(C#Cc3ccccc3)sc2C1)N1CCC(F)(F)C1`, the inhibition in series [11] came out at 26%. The IC50 in series [1] is > 10 µM. For the same compound, in series [4], the Emax is 170%. For the same compound, the EC50 in series [5] was 0.053 µM.

As to `O=C(C1CCCC1)N1CCc2nc(C#Cc3ccccc3)sc2C1`, the inhibition in series [11] amounted to 42%. For the same compound, the IC50 in series [1] was > 10 µM. In [4], the Emax is 280%. For the same compound, the EC50 in [5] worked out at 0.019 µM.

Consider `CC1CCCC(C(=O)N2CCc3nc(C#Cc4ccccc4)sc3C2)C1` (centres undefined), for which, in series [11], the inhibition turned out to be 20%. Also, the IC50 in series [1] is > 10 µM. Besides, the Emax in series [4] was 260%. For the same compound, the EC50 in [5] came to 0.1 µM.

As for `COC1CC(C(=O)N2CCc3nc(C#Cc4ccccc4)sc3C2)C1` (centres undefined), the inhibition in series [11] is -0.2%. In addition, the IC50 in series [1] is > 10 µM. For the same compound, in series [4], the Emax came out at 43%. Further, the EC50 in series [5] was 0.64 µM.
